In patent US10689331B2, “IDO inhibitors” (Bristol-Myers Squibb Company, priority 2015, dated 2020) one finds IC50 data, which are given here for 35 compounds.

SMILES strings stand for the structures.

T1 sequence (P14902 whole entry): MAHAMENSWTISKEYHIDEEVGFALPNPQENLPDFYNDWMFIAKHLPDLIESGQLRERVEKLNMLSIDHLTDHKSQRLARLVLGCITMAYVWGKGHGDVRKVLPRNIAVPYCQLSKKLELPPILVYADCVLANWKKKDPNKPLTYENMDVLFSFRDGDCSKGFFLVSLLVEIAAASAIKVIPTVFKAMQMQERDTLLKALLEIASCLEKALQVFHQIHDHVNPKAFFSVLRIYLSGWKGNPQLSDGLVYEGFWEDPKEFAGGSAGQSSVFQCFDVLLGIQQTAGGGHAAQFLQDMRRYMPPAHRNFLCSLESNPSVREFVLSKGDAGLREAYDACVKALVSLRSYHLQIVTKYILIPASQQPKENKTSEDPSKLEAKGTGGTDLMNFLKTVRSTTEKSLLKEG

The experiment has as its target T1, human IDO1 (Homo sapiens, UniProt P14902).
T1 construct: expressed in transfected cells
Nature of the experiment: HEK Human IDO-1 inhibition assay (kynurenine readout, Ehrlich reagent, absorbance 490 nm). It is filed as cell-based. Conditions: human IDO1/HEK293 cells, incubated 20 hours with compound; 500 nM reference standard = 100% inhibition. In short, it runs like this:
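HEK293 cells stably expressing human IDO1, treated with compound for 20 h at 37 °C in phenol red-free RPMI/10% FBS. Kynurenine detected after TCA (0.2% final, 50 °C, 30 min) by Ehrlich reagent absorbance at 490 nm; IC50 normalised to 500 nM reference standard (100%) and DMSO (0%).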
Consider `Cc1ccc(NC(=O)Nc2cc(OCC(=O)O)c(Cl)cc2N(CC(C)C)C2CCCCC2)cc1` [Example 122, 2-(2-chloro-4-(cyclohexyl(isobutyl)amino)-5-(3-(p-tolyl)ureido)phenoxy)acetic acid], for which the IC50 (usually the point on the concentration scale where inhibition reaches its midpoint) is ≥ 0.1 µM. Then `CC(C)CN(c1cc(F)c(OCC(=O)O)cc1NC(=O)Nc1ccccc1Cl)C1CCCCC1` [Example 123, 2-(5-(3-(2-chlorophenyl)ureido)-4-(cyclohexyl(isobutyl)amino)-2-fluorophenoxy)acetic acid], with ≥ 0.1 µM; and `CC(C)CN(c1cc(F)c(OCC(=O)O)cc1NC(=O)Nc1ccc(F)cc1F)C1CCCCC1` [Example 124, 2-(4-(cyclohexyl(isobutyl)amino)-5-(3-(2,4-difluorophenyl)ureido)-2-fluorophenoxy)acetic acid], with < 0.1 µM; and `CC(C)CN(c1cc(F)c(OCC(=O)O)cc1NC(=O)Nc1ccc(Br)cc1F)C1CCCCC1` [Example 125, 2-(5-(3-(4-bromo-2-fluorophenyl)ureido)-4-(cyclohexyl(isobutyl)amino)-2-fluorophenoxy)acetic acid], with < 0.005 µM. Then `CC(C)CN(c1cc(F)c(OCC(=O)O)cc1NC(=O)Nc1cc(F)ccc1F)C1CCCCC1` [Example 126, 2-(4-(cyclohexyl(isobutyl)amino)-5-(3-(2,5-difluorophenyl)ureido)-2-fluorophenoxy)acetic acid], with < 0.005 µM.

On to `CC(C)CN(c1cc(F)c(OCC(=O)O)cc1NC(=O)Nc1ccc(OC(F)(F)F)cc1)C1CCCCC1` [Example 127, 2-(4-(cyclohexyl(isobutyl)amino)-2-fluoro-5-(3-(4-(trifluoromethoxy)phenyl)ureido)phenoxy)acetic acid], for which the IC50 was < 0.1 µM.

For the compound `CC(C)CN(c1cc(F)c(OCC(=O)O)cc1NC(=O)Nc1ccc(C#N)nc1)C1CCCCC1` [Example 128, 2-(5-(3-(6-cyanopyridin-3-yl)ureido)-4-(cyclohexyl(isobutyl)amino)-2-fluorophenoxy)acetic acid], the IC50 is ≥ 0.1 µM. With `CC(C)CN(c1cc(F)c(OCC(=O)O)cc1NC(=O)Nc1ccccc1F)C1CCCCC1` [Example 129], the IC50 was < 0.1 µM. Regarding `O=C(O)COc1ccc(N(CC2CC2)C2CCCCC2)c(NC(=O)Nc2cc(F)ccc2F)c1` [Example 130], the half-inhibitory concentration (IC50) is < 0.1 µM. Then `Cc1ccc(NC(=O)Nc2cc(OCC(=O)O)ccc2N(CC2CC2)C2CCCCC2)cc1` [Example 131, 2-(4-(cyclohexyl(cyclopropylmethyl)amino)-3-(3-(p-tolyl)ureido)phenoxy)acetic acid], with ≥ 0.1 µM. With `CC(C)CN(c1cc(F)c(OCC(=O)O)cc1NC(=O)Cc1ccc(Cl)cc1F)C1CCCCC1` [Example 133, 2-(5-(2-(4-chloro-2-fluorophenyl)acetamido)-4-(cyclohexyl(isobutyl)amino)-2-fluorophenoxy)acetic acid], the IC50 is < 0.1 µM.

`CC(C)CN(c1ccc(OCC(=O)NCC(F)(F)F)cc1NC(=O)Nc1ccc(Cl)cc1F)C1CCCCC1` [Example 135, 2-(3-(3-(4-chloro-2-fluorophenyl)ureido)-4-(cyclohexyl(isobutyl)amino)phenoxy)-N-(2,2,2-trifluoroethyl)acetamide]: the half-maximal inhibitory concentration (IC50) is ≥ 0.1 µM. Regarding `C=C(C)CN(c1ccc(OCC(=O)O)cc1NC(=O)Nc1ccc(Cl)cc1F)C1CCOCC1` [Example 137, 2-(3-(3-(4-chloro-2-fluorophenyl)ureido)-4-((2-methylallyl)(tetrahydro-2H-pyran-4-yl)amino)phenoxy)acetic acid], the IC50 is < 0.1 µM.

Consider `C=C(C)CN(c1ccc(OC(C)C(=O)O)cc1NC(=O)Nc1ccc(Cl)cc1F)C1CCOCC1` (centres unmarked) [Example 138, 2-(3-(3-(4-chloro-2-fluorophenyl)ureido)-4-((2-methylallyl)(tetrahydro-2H-pyran-4-yl)amino)phenoxy)propanoic acid], for which the half-inhibitory concentration (IC50) is < 0.1 µM. As to `C=C(C)CN(c1ccc(OCC(=O)O)cc1NC(=O)Nc1ccc(Cl)cc1F)C1COC1` [Example 141, 2-(3-(3-(4-chloro-2-fluorophenyl)ureido)-4-((2-methylallyl)(oxetan-3-yl)amino)phenoxy)acetic acid], the concentration for half-maximal inhibition (IC50) is ≥ 0.1 µM.

With `C=C(C)CN1CCC(N(CC(=C)C)c2ccc(OCC(=O)O)cc2NC(=O)Nc2ccc(Cl)cc2F)CC1` [Example 142, 2-(3-(3-(4-chloro-2-fluorophenyl)ureido)-4-((2-methylallyl)(1-(2-methylallyl)piperidin-4-yl)amino)phenoxy)acetic acid], the IC50 was < 0.1 µM. `CC(C)CN(c1ccc(OCC(=O)O)cc1NC(=O)Nc1ccc(Cl)cc1F)C1CCOC1` (centres unmarked) [Example 144, 2-(3-(3-(4-chloro-2-fluorophenyl)ureido)-4-(isobutyl(tetrahydrofuran-3-yl)amino)phenoxy)acetic acid]: the IC50 was ≥ 0.1 µM.

For `CC(C)CN(c1ccc(OC(C)C(=O)O)cc1NC(=O)Nc1ccc(Cl)cc1F)C1CCOC1` (centres unmarked) [Example 145, 2-(3-(3-(4-chloro-2-fluorophenyl)ureido)-4-(isobutyl(tetrahydrofuran-3-yl)amino)phenoxy)propanoic acid], the concentration for half-maximal inhibition (IC50) was < 0.1 µM.

As to `CC(C)CN(c1ccc(OCC(=O)O)cc1NC(=O)Nc1ccc(Cl)cc1F)C1COC1` [Example 147, 2-(3-(3-(4-chloro-2-fluorophenyl)ureido)-4-(isobutyl(oxetan-3-yl)amino)phenoxy)acetic acid], the concentration for half-maximal inhibition (IC50) was ≥ 0.1 µM. Then `CC(Oc1ccc(N(CCC(F)(F)F)C2CCOCC2)c(NC(=O)Nc2ccc(Cl)cc2F)c1)C(=O)O` (centres unmarked) [Example 148, 2-(3-(3-(4-chloro-2-fluorophenyl)ureido)-4-((tetrahydro-2H-pyran-4-yl)(3,3,3-trifluoropropyl)amino)phenoxy)propanoic acid], with ≥ 0.1 µM. In the case of `CC(C)CN(c1ccc(OCC(=O)O)cc1NC(=O)Nc1ccc(Cl)cc1F)C1CCC(O)CC1` (centres unmarked) [Example 149, 2-(3-(3-(4-chloro-2-fluorophenyl)ureido)-4-((0-4-hydroxycyclohexyl)(isobutyl)amino)phenoxy)acetic acid], the IC50 is ≥ 0.1 µM. Then `CC(C)CN(c1ccc(OCC(=O)O)cc1NC(=O)Nc1ccc(Cl)cc1F)C1CCC(O)CC1` (centres unmarked) [Example 150, 2-(3-(3-(4-chloro-2-fluorophenyl)ureido)-4-((( )-4 hydroxycyclohexyl)(isobutyl)amino)phenoxy)acetic acid], with ≥ 0.1 µM; and `CC(C)CN(c1ccc(OCC(=O)O)cc1NC(=O)Nc1ccc(Cl)cc1F)C1CCOCC1` [Example 151, 2-(3-(3-(4-chloro-2-fluorophenyl)ureido)-4-(isobutyl(tetrahydro-2H-pyran-4-yl)amino)phenoxy)acetic acid], with ≥ 0.1 µM. Take `COC1CCC(N(CC(C)C)c2ccc(OCC(=O)O)cc2NC(=O)Nc2ccc(Cl)cc2F)CC1` (centres unmarked) [Example 152, 2-(3-(3-(4-chloro-2-fluorophenyl)ureido)-4-(isobutyl(0-4-methoxycyclohexyl)amino)phenoxy)acetic acid]: the IC50 was ≥ 0.1 µM. In the case of `CC(C)CN(c1ccc(OCC(N)=O)cc1NC(=O)Nc1ccc(Cl)cc1F)C1CCCCC1` [Example 153, 2-(3-(3-(4-chloro-2-fluorophenyl)ureido)-4-(cyclohexyl(isobutyl)amino)phenoxy)acetamide], the IC50 is ≥ 0.1 µM. Turning to `CC(C)CN(c1ccc(OCC(=O)Nc2ncco2)cc1NC(=O)Nc1ccc(Cl)cc1F)C1CCCCC1` [Example 154, 2-(3-(3-(4-chloro-2-fluorophenyl)ureido)-4-(cyclohexyl(isobutyl)amino)phenoxy)-N-(oxazol-2-yl)acetamide], the 50% inhibitory concentration (IC50) is < 0.005 µM. Consider `CC(C)CN(c1ccc(OCC(=O)Nc2nccs2)cc1NC(=O)Nc1ccc(Cl)cc1F)C1CCCCC1` [Example 155, 2-(3-(3-(4-chloro-2-fluorophenyl)ureido)-4-(cyclohexyl(isobutyl)amino)phenoxy)-N-(thiazol-2-yl)acetamide], for which the IC50 was ≥ 0.1 µM. For the compound `CC(C)CN(c1ccc(OCc2ncco2)cc1NC(=O)Nc1ccc(Cl)cc1F)C1CCCCC1` [Example 156, 1-(4-chloro-2-fluorophenyl)-3-(2-(cyclohexyl(isobutyl)amino)-5-(oxazol-2-ylmethoxy)phenyl)urea], the IC50 was < 0.1 µM. Consider `CC(C)CN(c1ccc(OC(C)c2ncco2)cc1NC(=O)Nc1ccc(Cl)cc1F)C1CCCCC1` (centres unmarked) [Example 157, 1-(4-chloro-2-fluorophenyl)-3-(2-(cyclohexyl(isobutyl)amino)-5-(1-(oxazol-2-yl)ethoxy)phenyl)urea], for which the IC50 was < 0.1 µM. Take `CCCN(Cc1ccccc1)c1ccc(OCC(=O)O)cc1NC(=O)Nc1ccc(Cl)cc1F` [Example 158, 2-(4-(benzyl(propyl)amino)-3-(3-(4-chloro-2-fluorophenyl)ureido)phenoxy)acetic acid]: the IC50 was < 0.1 µM. For `CCCN(Cc1ccccc1)c1ccc(OCC(=O)O)cc1NC(=O)Nc1ccc(C)cc1` [Example 159, 2-(4-(benzyl(propyl)amino)-3-(3-(p-tolyl)ureido)phenoxy)acetic acid], the IC50 is ≥ 0.1 µM. Take `CCCN(Cc1ccccc1)c1ccc(OCC(=O)O)cc1NC(=O)Nc1ccc(OC(F)(F)F)cc1` [Example 160, 2-(4-(benzyl(propyl)amino)-3-(3-(4-(trifluoromethoxy)phenyl)ureido)phenoxy)acetic acid]: the half-maximal inhibitory concentration (IC50) is ≥ 0.1 µM. For the compound `CCCN(Cc1ccccc1)c1ccc(OCC(=O)O)cc1NC(=O)Nc1ccc(OCC)cc1` [Example 161, 2-(4-(benzyl(propyl)amino)-3-(3-(4-ethoxyphenyl)ureido)phenoxy)acetic acid], the IC50 was ≥ 0.1 µM. With `CCCN(Cc1ccccc1)c1ccc(OCC(=O)O)cc1NC(=O)Nc1ccc(C(F)(F)F)cc1` [Example 162, 2-(4-(benzyl(propyl)amino)-3-(3-(4-(trifluoromethyl)phenyl)ureido)phenoxy)acetic acid], the IC50 is ≥ 0.1 µM. On to `CC(C)CN(Cc1ccc(Cl)cc1)c1ccc(OCC(=O)O)cc1NC(=O)Nc1ccc(Cl)cc1F` [Example 163, 2-(3-(3-(4-chloro-2-fluorophenyl)ureido)-4-((4-chlorobenzyl)(isobutyl)amino)phenoxy)acetic acid], for which the IC50 was < 0.1 µM.
